Assay results taken from patent US7045523B2 (Novartis AG, priority 2001, dated 2006).

Key:
[1] = tested on: K562 cells; experiment: Apoptosis assay, flow cytometry with APO2.7 mAb, in K562 cells with or without 10 days of telomestatin; format: cell-based; conditions: for APO2.7 (%): 48 hours, K562 control cells or cells cultured with telomestatin 2 μM for 10 days; for induction of apoptosis / chemosensitivity in telomestatin-treated K562 cells compared with control cells: after exposure to the agent, the negative results are data not shown
Method: Apoptosis assay. The incidence of apoptosis was determined by flow cytometric analysis with the FITC-conjugated APO2.7 monoclonal antibody (clone 2.7), which was raised against the 38 kDa mitochondrial membrane protein (7A6 antigen) and is expressed by cells undergoing apoptosis (Nakajima et al., 2001).
To assess the effects of telomerase inhibition in modulating responses to these reagents, experiments focused on early passaged telomestatin-treated K562 cells (PD10). In this series of experiments, K562 cells are cultured with telomestatin for 10 days, subsequently the telomestatin-treated K562 cells are incubated with the agents for 48 hours, and the incidence of apoptosis is determined by flow cytometric analysis with APO2.7 mAb (Table A). Apo2.7 is the apoptosis index. Higher score means that apoptosis is induced more powerfully.

[2] = tested on: OM9;22 or OM9;22R cells; experiment: Cell proliferation (growth kinetics) of OM9;22 / OM9;22R cells; format: cell-based, human; conditions: OM9;22 or Imatinib-resistant OM9;22R cells
Method: Cells and cell culture: The Ph-positive acute lymphoblastic cell line OM9;22 has been described previously (Ohyashiki et al., 1993). K562 cells were obtained from the American Type Culture Collection (Rockville, Md.). These cell lines were cultured in McCoy's 5A modified medium (Life Technology, Inc.) supplemented with 10% fetal calf serum (Hyclone Laboratories, Logan, Utah).
Effects of telomestatin on cell proliferation. We characterize the growth properties of telomestatin-treated cells. […] In a further study, we can characterize the ability of telomestatin to inhibit BCR-ABL transformation.

[3] = tested on: human normal hematopoietic progenitor cells; experiment: Clonogenic assay on normal hematopoietic progenitor cells; format: cell-based; conditions: at concentrations 10 times higher than those that completely inhibit colonies from OM9;22R cells

`CC[C@]1(O)C[C@H]2CN(CCc3c([nH]c4ccccc34)[C@@](C(=O)OC)(c3cc4c(cc3OC)N(C=O)[C@H]3[C@@](O)(C(=O)OC)[C@H](OC(C)=O)[C@]5(CC)C=CCN6CC[C@]43[C@@H]65)C2)C1` [VCR (control), vincristine] was tested, and the “APO2.7 (%)” value ([1]; 10 nM agent) was 12%, the “APO2.7 (%)” value ([1]; 50 nM agent) was 18% and the “APO2.7 (%)” value ([1]; 100 nM agent) was 24%. For the same compound, the “APO2.7 (%)” value ([1]; 500 nM agent) was 29%, the “APO2.7 (%)” value ([1]; 1000 nM agent) was 34% and the “induction of apoptosis / chemosensitivity in telomestatin-treated K562 cells compared with control cells” value [1] was “enhanced induction of apoptosis”.
In the case of `Cc1oc2nc1-c1nc(co1)-c1nc(co1)-c1nc(co1)-c1nc(co1)-c1nc(co1)C1=NC(CS1)c1nc-2c(C)o1` (centres unmarked) [telomestatin], the “time until proliferation is slowed” value [2] is reported as at most 2 weeks and the “sensitivity of human normal hematopoietic progenitor cells” value [3] is reported as “significantly less sensitive”.
`CN(Cc1cnc2nc(N)nc(N)c2n1)c1ccc(C(=O)N[C@@H](CCC(=O)O)C(=O)O)cc1` [methotrexate (MTX), methotrexate] was tested, and the “induction of apoptosis / chemosensitivity in telomestatin-treated K562 cells compared with control cells” value [1] was “significant chemosensitivity is not observed”.
With `Nc1ccn([C@@H]2O[C@H](CO)[C@@H](O)[C@@H]2O)c(=O)n1` [cytosine arabimoside, cytosine arabinoside] the “induction of apoptosis / chemosensitivity in telomestatin-treated K562 cells compared with control cells” value [1] was “significant chemosensitivity is not observed”.
For `COc1cc([C@@H]2c3cc4c(cc3[C@@H](O[C@@H]3O[C@@H]5CO[C@@H](C)O[C@H]5[C@H](O)[C@H]3O)[C@H]3COC(=O)[C@H]23)OCO4)cc(OC)c1O` [etoposide (VP-16), etoposide], the “induction of apoptosis / chemosensitivity in telomestatin-treated K562 cells compared with control cells” value [1] was “significant chemosensitivity is not observed”.
With `Sc1ncnc2nc[nH]c12` [6-mercaptopurine (6-MP), 6-mercaptopurine] the “induction of apoptosis / chemosensitivity in telomestatin-treated K562 cells compared with control cells” value [1] was “significant chemosensitivity is not observed”.
`COc1cccc2c1C(=O)c1c(O)c3c(c(O)c1C2=O)C[C@@](O)(C(C)=O)C[C@@H]3O[C@H]1C[C@H](N)[C@H](O)[C@H](C)O1` [DNR (control), Daunorubicin] was tested, and the “APO2.7 (%)” value ([1]; 10 nM agent) was 11%, the “APO2.7 (%)” value ([1]; 50 nM agent) was 23% and the “APO2.7 (%)” value ([1]; 100 nM agent) was 36%. The “APO2.7 (%)” value ([1]; 500 nM agent) was 53% and the “induction of apoptosis / chemosensitivity in telomestatin-treated K562 cells compared with control cells” value [1] was “enhanced induction of apoptosis”.
`O=C1c2c(O)ccc(O)c2C(=O)c2c(NCCNCCO)ccc(NCCNCCO)c21` [MIT (control), mitoxantrone] was tested, and the “APO2.7 (%)” value ([1]; 10 nM agent) was 10%, the “APO2.7 (%)” value ([1]; 50 nM agent) was 12% and the “APO2.7 (%)” value ([1]; 100 nM agent) was 17%. The “APO2.7 (%)” value ([1]; 500 nM agent) was 29%, the “APO2.7 (%)” value ([1]; 1000 nM agent) was 38% and the “induction of apoptosis / chemosensitivity in telomestatin-treated K562 cells compared with control cells” value [1] was “enhanced induction of apoptosis”.
